For the test, the system named is BDF1 mice, B16 melanoma ip, median survival T/C. Nature of the test: NCI In Vivo Anticancer Drug Screen. Data for tumor model B16 Melanoma (intraperitoneal) in B6D2F1 (BDF1) mice. The following applies: endpoint: median survival time, higher = longer survival. Summed up: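 In this screen, activity was judged from survival or tumor size in treated versus vehicle-treated tumor-bearing mice, reported as T/C.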

The mark [1] stands for this setting: dose: 1.56 mg/kg/injection, schedule: Q01DX009 (ip), vehicle: saline with Tween-80.
Setting [2] is: dose: 3.13 mg/kg/injection, schedule: Q01DX009 (ip), vehicle: saline with Tween-80.
Where [3] appears, read: dose: 6.25 mg/kg/injection, schedule: Q01DX009 (ip), vehicle: saline with Tween-80.
The mark [4] stands for this setting: dose: 12.5 mg/kg/injection, schedule: Q01DX009 (ip), vehicle: saline with Tween-80.
The mark [5] stands for this setting: dose: 25.0 mg/kg/injection, schedule: Q01DX009 (ip), vehicle: saline with Tween-80.
Where [6] appears, read: dose: 100.0 mg/kg/injection, schedule: Q01DX009 (ip), vehicle: saline.
Setting [7] is: dose: 200.0 mg/kg/injection, schedule: Q01DX009 (ip), vehicle: saline.
[8] abbreviates: dose: 50.0 mg/kg/injection, schedule: Q01DX009 (ip), vehicle: saline.
Setting [9] is: dose: 50.0 mg/kg/injection, schedule: Q01DX009 (ip), vehicle: saline with Tween-80.
Setting [10] is: dose: 100.0 mg/kg/injection, schedule: Q01DX009 (ip), vehicle: saline with Tween-80.
Where [11] appears, read: dose: 100.0 mg/kg/injection, schedule: Q01DX009 (ip), vehicle: Klucel (hydroxypropylcellulose) (HPC).
[12] abbreviates: dose: 200.0 mg/kg/injection, schedule: Q01DX009 (ip), vehicle: Klucel (hydroxypropylcellulose) (HPC).
Setting [13] is: dose: 400.0 mg/kg/injection, schedule: Q01DX009 (ip), vehicle: Klucel (hydroxypropylcellulose) (HPC).

Several values for one entry are separate records, joined by “and”; a condition that tells them apart may be missing. Equal values may be shown once. Inconclusive results and toxic doses are left out. Numbered stars: 1 amine (or outer) side, 2 acyl side, 3 side chain; on linkers, the order of the positions; unused ones are H or OH. Bridge positions count the residues as written; N and C are the ends. Square brackets hold non-standard residues; d marks the D form. Peptide text beside a SMILES is read from it. I, II: the chains in the order shown. Actinocin(1to9) = Cc1c2oc3c(C)ccc(C(=O)[*:2])c3nc-2c(C(=O)[*:1])c(N)c1=O; Hyp = O=C(O)[CH]1C[CH](O)CN1; NMeV = CN[CH](C(=O)O)C(C)C; Sar = CNCC(=O)O

`NC(=S)N/N=C/c1ccc(OC(F)(F)F)cn1`: the T/C under setting [1] was 92 % of control, the T/C under setting [2] was 94 % of control, the T/C under setting [3] is 89 % of control and the T/C under setting [4] is 95 % of control.
Take `O=c1sc(N=Nc2ccccc2)nn1-c1ccccc1`: the T/C reads like this: (dose: 100.0 mg/kg/injection, schedule: Q04DX003 (ip), vehicle: Klucel (hydroxypropylcellulose) (HPC)) 94 % of control; (dose: 200.0 mg/kg/injection, schedule: Q04DX003 (ip), vehicle: Klucel (hydroxypropylcellulose) (HPC)) 89 % of control.
As for `COc1cc2c(cc1OC)C(OC)N(C)c1c-2ccc2cc3c(cc12)OCO3` (stereo unspecified), under setting [5], the T/C was 122 % of control.
Regarding `Cc1ccc([N+](=O)[O-])cc1NC(=O)COc1ccc(Cl)cc1Cl`, the T/C reads like this: (dose: 75.0 mg/kg/injection, schedule: Q01DX009 (ip), vehicle: Klucel (hydroxypropylcellulose) (HPC)) 90 % of control; (dose: 150.0 mg/kg/injection, schedule: Q01DX009 (ip), vehicle: Klucel (hydroxypropylcellulose) (HPC)) 88 % of control; (dose: 300.0 mg/kg/injection, schedule: Q01DX009 (ip), vehicle: Klucel (hydroxypropylcellulose) (HPC)) 86 % of control.
With `SCc1ccccn1`, the T/C by setting is: under setting [6], 112 % of control; under setting [7], 115 % of control; (dose: 400.0 mg/kg/injection, schedule: Q01DX009 (ip), vehicle: saline) 105 % of control.
Consider `CNCCN(C)CCN(C)Cc1ccc(OC)cc1`, for which the T/C under setting [8] is 103 % of control, the T/C under setting [6] was 106 % of control and the T/C under setting [7] is 106 % of control.
Turning to `O=C(O)C1C2CC(O)C(C2)C1C(=O)O` (stereo unspecified), the T/C by setting is: (dose: 100.0 mg/kg/injection, schedule: Q04DX003 (ip), vehicle: saline) 100 % of control and 94 % of control; (dose: 200.0 mg/kg/injection, schedule: Q04DX003 (ip), vehicle: saline) 100 % of control and 91 % of control; (dose: 400.0 mg/kg/injection, schedule: Q04DX003 (ip), vehicle: saline) 94 % of control.
In the case of `COC(=O)c1ccc[n+](CC(=O)c2ccccc2)c1`, the T/C by setting is: under setting [8], 95 % of control; under setting [6], 93 % of control; under setting [7], 99 % of control.
Consider `CC(=O)CC(c1ccccc1)c1c(O)c2ccccc2oc1=O` (stereo unspecified), for which the T/C is, setting by setting: (dose: 0.05 mg/kg/injection, schedule: Q01DX009 (ip), vehicle: saline with Tween-80) 107 % of control; (dose: 0.1 mg/kg/injection, schedule: Q01DX009 (ip), vehicle: saline with Tween-80) 98 % of control; (dose: 0.2 mg/kg/injection, schedule: Q01DX009 (ip), vehicle: saline with Tween-80) 104 % of control; (dose: 0.8 mg/kg/injection, schedule: Q01DX009 (ip), vehicle: saline with Tween-80) 90 % of control.
`CCCN(CCC)CCCCCCO`: the T/C was 102 % of control under setting [9]; 102 % of control under setting [10]; 99 % of control (dose: 200.0 mg/kg/injection, schedule: Q01DX009 (ip), vehicle: saline with Tween-80).
As to `COc1ccc(NC(=O)c2cccc(C(=O)Nc3ccc(OC)cc3)c2)cc1`, the T/C is 102 % of control under setting [11], 108 % of control under setting [12] and 102 % of control under setting [13].
As for `O=C1CCC(=O)N1CO`, the T/C is 107 % of control and 112 % of control (dose: 37.5 mg/kg/injection, schedule: Q01DX009 (ip), vehicle: saline); 104 % of control and 107 % of control (dose: 75.0 mg/kg/injection, schedule: Q01DX009 (ip), vehicle: saline); 109 % of control (dose: 150.0 mg/kg/injection, schedule: Q01DX009 (ip), vehicle: saline).
With `CSc1nc(Cl)c(Br)c(Cl)n1`, the T/C by setting is: under setting [1], 110 % of control; under setting [2], 112 % of control; under setting [3], 102 % of control; under setting [4], 108 % of control.
Regarding `Cc1c2oc3c(C)ccc(C(=O)NC4C(=O)NC(C(C)C)C(=O)N5CCCC5C(=O)N(C)CC(=O)N(C)C(C(C)C)C(=O)OC4C)c3nc-2c(C(=O)NC2C(=O)NC(C(C)C)C(=O)N3CC(O)CC3C(=O)N(C)CC(=O)N(C)C(C(C)C)C(=O)OC2C)c(N)c1=O` (stereo unspecified) (I: TV[Hyp][Sar][NMeV] / II: TVP[Sar][NMeV]; ester I:1-I:C, II:1-II:C; linker I:N-II:N via Actinocin(1to9); configuration not given here), the T/C runs as follows: (dose: 100.0 micrograms/kg/injection, schedule: Q01DX009 (ip), vehicle: saline + alcohol) 152 % of control; (dose: 150.0 micrograms/kg/injection, schedule: Q01DX009 (ip), vehicle: saline + alcohol) 158 % of control; (dose: 225.0 micrograms/kg/injection, schedule: Q04DX003 (ip), vehicle: saline + alcohol) 120 % of control; (dose: 450.0 micrograms/kg/injection, schedule: Q04DX003 (ip), vehicle: saline + alcohol) 121 % of control; (dose: 600.0 micrograms/kg/injection, schedule: Q04DX003 (ip), vehicle: saline + alcohol) 95 % of control; (dose: 900.0 micrograms/kg/injection, schedule: Q04DX003 (ip), vehicle: saline + alcohol) 88 % of control.
As to `S=C1SCN(Cc2ccccc2)CN1Cc1ccccc1`, the T/C reads like this: (dose: 25.0 mg/kg/injection, schedule: Q01DX009 (ip), vehicle: Klucel (hydroxypropylcellulose) (HPC)) 102 % of control and 120 % of control; (dose: 50.0 mg/kg/injection, schedule: Q01DX009 (ip), vehicle: Klucel (hydroxypropylcellulose) (HPC)) 102 % of control and 108 % of control; under setting [11], 90 % of control and 97 % of control and 105 % of control.
`CSCCC(N)C(=O)O` (stereo unspecified): the T/C was 103 % of control and 106 % of control (dose: 40.0 mg/kg/injection, schedule: Q01DX009 (ip), vehicle: saline with Tween-80); 102 % of control and 108 % of control (dose: 80.0 mg/kg/injection, schedule: Q01DX009 (ip), vehicle: saline with Tween-80); 113 % of control and 118 % of control (dose: 160.0 mg/kg/injection, schedule: Q01DX009 (ip), vehicle: saline with Tween-80); 94 % of control and 100 % of control (dose: 320.0 mg/kg/injection, schedule: Q01DX009 (ip), vehicle: saline with Tween-80).
Take `CN(C)CCCN=Cc1ccccc1O.CN(C)CCCN=Cc1ccccc1O.[Ni+2]`: the T/C is, setting by setting: (dose: 6.25 mg/kg/injection, schedule: Q04DX003 (ip), vehicle: saline with Tween-80) 92 % of control; (dose: 25.0 mg/kg/injection, schedule: Q04DX003 (ip), vehicle: saline with Tween-80) 86 % of control.
`NC(=S)N/N=C/c1ccc(OC(=O)COc2ccc(Cl)cc2)cn1`: the T/C is, setting by setting: under setting [5], 111 % of control; under setting [9], 116 % of control; under setting [10], 117 % of control.
For the compound `CCC[CH2][Hg][Cl]`, the T/C runs as follows: (dose: 0.75 mg/kg/injection, schedule: Q01DX009 (ip), vehicle: saline with Tween-80) 91 % of control; (dose: 1.5 mg/kg/injection, schedule: Q01DX009 (ip), vehicle: saline with Tween-80) 92 % of control.
On to `Nc1nc(SCc2ccccc2F)c2ncn(C3OC(CO)C(O)C3O)c2n1` (stereo unspecified), for which the T/C (dose: 3.12 mg/kg/injection, schedule: Q01DX009 (ip), vehicle: saline with Tween-80) is 105 % of control; the T/C under setting [3] was 116 % of control; the T/C under setting [4] is 122 % of control; the T/C under setting [5] is 95 % of control.
For `O=S(=O)(O)c1ccc(Nc2ccccc2)cc1`, the T/C is 107 % of control and 97 % of control under setting [11]; 114 % of control and 88 % of control under setting [12]; 107 % of control and 100 % of control under setting [13].

The values above are taken from PubChem BioAssay AID192 (DTP/NCI, 2004).
